Each structure is given as a SMILES string. Read-outs that look alike come from different tables or passages of the source.

Data set [1] deals with RVFV strain MP12. Nature of the data set: microbe, parasite or virus in culture. The conditions noted are these: for EC50: Rift Valley fever virus, HeLa, 24 h. Format: cell-based, Rift Valley fever virus.
Data set [2] relates to RVFV. Nature of the data set: microbe, parasite or virus in culture. Type of data set: cell-based. The conditions noted are these: Rift Valley fever virus, SAEC, 24 h.
In data set [3] the test system is VEEV (1CSH3). Nature of the data set: microbe, parasite or virus in culture. The conditions noted are these: for EC50: Venezuelan equine encephalitis virus, HeLa, 20 h. Type of data set: cell-based, Venezuelan equine encephalomyelitis virus.
The test system of data set [4] is EBOV (Zaire). The experiment in a line: microbe, parasite or virus in culture. Type of data set: cell-based, Zaire ebolavirus.
In data set [5] the test system is MARV (Ci67). Nature of the data set: microbe, parasite or virus in culture. Type of data set: cell-based, Lake Victoria marburgvirus.
Data set [6] has as its system LASV (Josiah). Nature of the data set: microbe, parasite or virus in culture. Type of data set: cell-based, Lassa virus. The conditions noted are these: for EC50: Mammarenavirus lassaense, HeLa, 24 h.
The subject of data set [7] is Golgi complex in HeLa-G cells. The experiment in a line: cells. Type of data set: cell-based, human. The conditions noted are these: for EC50: Homo sapiens, 12 h, read-out: GC50 (effective concentration of compound that disrupts 50% of the Golgi complexes).
Data set [8] relates to RVFV strain MP12. Format: cell-based, Rift Valley fever virus.
Data set [9] can be described thus: in vitro. The conditions noted are these: human.
Data set [10] can be described thus: in vitro. To be noted: human. The source holds these as a separate data set.
The test system of data set [11] is RVFV RNA. Type of data set: cell-based, Rift Valley fever virus.
In data set [12] the test system is HeLa cells.
Data set [13] concerns HeLa cells expressing H3-pS10.
The test system of data set [14] is tubulin / microtubule organization in HeLa cells. Type of data set: cell-based, human.
Setting [15] is: Orthomarburgvirus marburgense, HeLa, 48 h.

For `CC1(C(=O)NCc2ccccc2)Cn2c(cc3occc32)C(=O)N1Cc1ccc(Cl)cc1` (centres unmarked) [C795-0925], the “antiviral activity against RVFV in secondary screening (heat map)” value in data set [1] is reported as “highest activity”. For the same compound, the EC50 in [1] worked out at 14.4 µM; in data set [2] it was 12.3 µM; in data set [3], 10.2 µM; in [4] (Zaire ebolavirus, HeLa, 48 h), 46.6 µM; in data set [5] (setting [15]) it was 57.4 µM; in data set [6], 81.4 µM. Also, the EC50 in data set [7] was 36.9 µM. Further, the “antiviral activity against VEEV in secondary screening (heat map)” value in data set [3] was “highest activity”. Also, the “antiviral activity against EBOV in secondary screening (heat map)” value in data set [4] was “moderate antiviral activity”. For the same compound, in [5], the “antiviral activity against MARV in secondary screening (heat map)” value is on record as “moderate antiviral activity”. Further, the “antiviral activity against LASV in secondary screening (heat map)” value in [6] was “moderate antiviral activity”. Further, the “%GNL (lowest % of Golgi number achievable at the compound's highest concentration)” value (from here on “%GNL”) in data set [7] was 63.4%. For the same compound, in data set [8], the “reduction of N and Gn expression” value was “significantly reduced”. In [8], the “time of compound addition PI at which 50% of infection is rescued/recovered” value turned out to be 9 h. Further, the CC50 was found to be 56.7 µM in [9] and 111 µM in [10].
As for `Cc1ccc(NC(=O)Nc2cc(NC(=O)c3ccc(F)cc3)ccc2N2CCCC2)c(Cl)c1` [F694-1532], the EC50 in data set [1] amounted to 20 µM; in data set [2], 23.5 µM; in data set [3] it was 15.2 µM; in [4] (Zaire ebolavirus, HeLa, 48 h), 118 µM; in [5] (setting [15]), 143 µM; in [6], 80.4 µM. Moreover, the EC50 in data set [7] is 35.3 µM. Moreover, the “%GNL” value in data set [7] came to 19.5%. In [8], the “reduction of N and Gn expression” value was “significantly reduced”. In data set [8], the “time of compound addition PI at which 50% of infection is rescued/recovered” value is recorded as 8 h. In addition, in [10], the CC50 came to 51.3 µM.
Turning to `COc1ccccc1CNC(=O)C1c2c(n(C)c3ccccc23)SCC(=O)N1c1ccc(OC)c(OC)c1` (centres unmarked) [G202-0362], the EC50 in data set [1] is 13.6 µM; in data set [2] it was 11.9 µM; in data set [3], 48.9 µM; in [4], 16.1 µM; in data set [4] (Zaire ebolavirus, HeLa, 48 h), 16 µM; in data set [5], 34.1 µM. In addition, the EC50 amounted to 34 µM in data set [5] (setting [15]) and 23.7 µM in [7]. The “%GNL” value in data set [7] was found to be 61.2%. In addition, the “reduction of N and Gn expression” value in data set [8] is reported as around 10%. Further, the “reduction of S-Gn (cell surface exposed Gn) expression” value in data set [8] is listed as “approximately 90%”. The “time of compound addition PI at which 50% of infection is rescued/recovered” value in [8] is recorded as above 10 h. For the same compound, the “viral RNA accumulation in the supernatants” value in [11] was 28%. In addition, the “viral RNA accumulation inside the cells” value in data set [11] was found to be 95%. Moreover, the “toxic effects on the HeLa cells” value in [12] is “no toxic effects”. The “effects on cell division in uninfected cells” value in [13] is on record as “no observable effects”.
`Cl.N` [NH4Cl, reference compound]: in data set [8], the “RVFV infection inhibition when added 2 h PI” value is recorded as “not at the later time point” and the “RVFV infection inhibition when added at early time points (−2 h or 0 h)” value was “inhibited RVFV infection”.
`COc1ccc(CN2C(=O)C(=O)c3cc(C)ccc32)cc1` [D011-2120]: in data set [1], the “antiviral activity against RVFV in secondary screening (heat map)” value is listed as “moderate activity” and the EC50 is 61.5 µM. Moreover, the EC50 in data set [2] was found to be 62.4 µM. Moreover, in [3], the “antiviral activity against VEEV in secondary screening (heat map)” value was “high activity” and the EC50 was 41.6 µM. In addition, the “antiviral activity against EBOV in secondary screening (heat map)” value in data set [4] is reported as “high activity”. This compound gave an EC50 in data set [4] (Zaire ebolavirus, HeLa, 48 h) of 54.1 µM. The “antiviral activity against MARV in secondary screening (heat map)” value in data set [5] is on record as “high activity”. This compound also had an EC50 in data set [5] (setting [15]) of 87.1 µM. Also, in [6], the “antiviral activity against LASV in secondary screening (heat map)” value is reported as “moderate activity” and the EC50 was found to be 46.8 µM. In data set [7], the “%GNL” value was found to be 16.4% and the EC50 was found to be 38.2 µM. In data set [8], the “reduction of N and Gn expression” value is recorded as around 10%; the “reduction of S-Gn (cell surface exposed Gn) expression” value is listed as “approximately 90%”; the “time of compound addition PI at which 50% of infection is rescued/recovered” value is reported as above 10 h. Besides, in [11], the “viral RNA accumulation in the supernatants” value was found to be 9% and the “viral RNA accumulation inside the cells” value worked out at 75%. The “tubulin ridge value relative to BFA- or mock-treated cells” value in data set [14] was “approximately half”. Besides, in data set [13], the “number of cells expressing H3-pS10 (mitotic cells) vs mock-treated” value is given as “significant increase”. In [13] (human), the “concentration above which compound was toxic to the cells” value was above 25 µM. The CC50 in data set [10] worked out at 98 µM.
`COC(=O)Nc1nc2ccc(C(=O)c3cccs3)cc2[nH]1` [nocodazole, reference compound]: the “tubulin ridge value relative to BFA- or mock-treated cells” value in data set [14] is reported as “approximately half”. In addition, the “number of cells expressing H3-pS10 (mitotic cells) vs mock-treated” value in data set [13] is on record as “significant increase”.
Take `NC(=O)c1ncn([C@@H]2O[C@H](CO)[C@@H](O)[C@H]2O)n1` [Ribavirin, ribavirin, reference compound]: the EC50 is 27.2 µM in [1]; 29.5 µM in data set [2]; 75 µM in [3]; 60.1 µM in data set [4] (Zaire ebolavirus, HeLa, 48 h); 82.2 µM in data set [5] (setting [15]); 6.8 µM in data set [6]. In addition, the “%GNL” value in data set [7] worked out at 87.2%.

These data come from article PMC4140764 (PLoS Neglected Tropical Diseases, 2014).
